Where two headings read alike, the source gives them in different places.
Legend:
HCT116 cell line = test: Immunofluorescence of fascin1 localization and lamellipodia formation; format: cell-based, human; conditions: for filopodia lamellipodium formation: 24 h, migrastatin 100 μM, imipramine 20 μM, PD98059 50 μM, EGF 10 ng/ml; for Lamellipodia protrusion number: data not shown
Method: In order to assess the effect of imipramine on fascin1 localization and lamelipodia formation an immunofluorescence assay was performed. Round coverslips (Thermo Fisher, Waltham, MA USA) were seeded with HCT116 cell line in the presence of 10% FBS. After cells reached 100% confluence, serum supplemented medium was removed and replaced with fresh serum free medium for 24 h. Artificial wounding was performed by transversally dragging a sterilized razor blade on the central area of the coverslips. Coverslips were then placed in 6-well plate with 2 mL serum free DMEM and 100 μM migrastatin, 20 μM imipramine, Epidermal Growth Factor (EGF) 10 ng/ml and MEK inhibitor PD98059 50 μM (MEKi) (both from Sigma-Aldrich, St Louis, MO, USA) for 24 h. Cells were then fixed with Bouin (for fascin1 protein) or 4% formaldehyde (for actin protein) and subsequently permeabilized in a 0.3% Triton X-100/PBS solution, and then exposed to blocking buffer for 30 min. Samples were incubated for 1 h with anti-fascin1 antibody (1/250) (55K-2 clone; Santa Cruz Biotechnology, Heidelberg, Germany) or anti-β actin antibody (1/1000) (Sigma-Aldrich, St Louis, MO, USA) in a wet chamber.
Appropriate fluorescent-labelled primary antibodies were incubated later with Alexa fluor 488-conjugated anti-mouse IgG (from donkey) (1/400) or Alexa fluor 594-labelled phalloidin, respectively (1/1000) (Molecular Probes, Thermo Fisher Scientific, Waltham, MA USA) and Hoechst 33258 (Fluka, Biochemika, Sigma-Aldrich, St Louis, MO, USA) for 30 min at room temperature and darkness. Samples were examined and representative images were taken with a confocal microscope (LSM 510 META from ZEISS, Jena, Germany). The effect of imipramine on the fascin1 localization and the reorganization of the actin cytoskeleton, which includes the protrusion of the lamellipodium at the cell front filopodia formation and fascin1 localization, was assessed by immunofluorescence.

[1] = test system: HCT-116 colorectal cell line; test: Myoma organotypic invasion model; format: cell-based, human; conditions: HCT-116, 14 days, compared to control
Method: To improve the reliability of the experimental model compared to the real tumor microenvironment, cancer cell invasion was assessed in the myoma organotypic cultures and performed according to the previously published myoma model (Åström, P., Heljasvaara, R., Nyberg, P., Al-Samadi, A., & Salo, 2018). Briefly, uterine leiomyoma tissues were obtained from routine surgery after informed consent of the donors and their use approved by The Ethics Committee of the Oulu University Hospital. The myoma tissue was sliced into 5 mm and disks were made with an 8-mm biopsy punch (Kai Industries Co., Gifu, Japan). Myoma disks were pre-incubated in 100 μM MGS, 10 μM and 20 μM imipramine or 0.1% DMSO-DMEM treatments at +4° C. for 48 h. The myoma disks were placed into Transwell inserts (diameter 6.5 mm; Corning Incorporated, Corning, NY) and 700,000 cells in 50 μl of media were added on top of each myoma disk. The cells were allowed to attach overnight and the myoma disks were transferred onto uncoated nylon disks resting on curved steel grids in 12-well plates with 12 well plates with 1 ml of media plus migrastatin and imipramine in each well. The cancer cells were left to invade the myoma disks for 14 days, while changing the treatment media every 3 days. Subsequently the myoma discs were fixed with 4% neutral buffered formalin at room temperature for 24 h, and processed for histology. […]

[2] = test system: HCT-116 colorectal cancer cell line; test: Cell migration (wound healing) assay, HCT-116; format: cell-based, human; conditions: for Migration (%): slope 4-7 h relative to control, imipramine 20 μM, migrastatin 100 μM
Method: (§1) Except for SW-480, imipramine effect was more pronounced than migrastatin, especially for DLD-1. Cell migration was studied with the three cell lines by performing the wound healing assay in the presence of 5% FBS. Cancer colorectal cells (50,000 cells) were plated in low 35-mm-dishes with culture inserts (Ibidi, Martinsried, Germany). After appropriate cell attachment and monolayer formation (around for 24 h), inserts were then removed with sterile forceps to create a wound field of approximately 500 μm, according to the manufacturer protocol. Detached cells were gently removed with phosphate buffered saline (PBS, Dubelco) before the addition of drugs. Confluent cells were incubated in one of the following treatments: 100 μM migrastatin (AnalytiCon Discovery, cat. No. NP-006108), and 20 μM imipramine ((purchased via Molport, Letonia) and, control dishes that were incubated in the presence of 0.1% DMSO. Cells were then allowed to migrate in a cell culture incubator for 24 h. At 0, 3, 5 and 7 h (linear growth phase), 10 fields of the injury area were photographed with an inverted and phase contrast microscopy at ×10 magnification incorporating a CCD camera. For each timepoint, the area uncovered by cells was determined by an image processing free software analysis with Image J software program.
(§2) The migration speed of the wound closure is given as the percentage of the recovered area at each time point, relative to the initially covered area (0 h). The velocity of wound closure (%/h) was calculated according to the formula: Slope (%/h)=((% covered area t_x)−(% covered area t_0))/((tx−t_0)). Slopes are then expressed as percentages relative to control conditions.

fascin1 [3] = target: T1, fascin1 (Homo sapiens, UniProt Q16658); test: Fluorescence titration; format: binding; conditions: 25° C., 10% DMSO, 100 mM NaCl, 20 mM Hepes, pH 7.4; read-out: dissociation constant Kd
T1 construct: purchased Hypermol, Bielefeld, Germany 8411-02
Method: Fascin1 was extensively dialized against the appropriate buffer prior to each titration experiment. Fascin1 concentration was determined by measuring absorbance at 280 nm using an extinction coefficient of 67840 cm-1-M-1. Fluorescence titration experiments were performed in a Cary Eclipse spectrofluorimeter (Varian Inc.). A 15 μM (14.7 μM) fascin1 solution was titrated with each compound by adding increasing volumes of concentrated solutions. Emission spectra were recorded between 307 and 500 nm at 25° C. in 10% DMSO, 100 mM NaCl, 20 mM Hepes, pH 7.4, with the excitation wavelength fixed at 280 nm. Binding isotherms were generated using either the changes in spectral area or in spectral centre of mass (CM), depending whether the change was only in fluorescence intensity or was also in the maximum emission wavelength.
The resulting curves were fitted using ORIGIN 7.0 (Microcal Inc.) and a one-site equilibrium binding model, according to the following equation:
[formula] Ff and Fb are the fluorescence signal (area or CM) of free and bound fascin1 and PT and LT are the total protein and ligand concentration, respectively, at each addition point. Tm values were measured as the minimum of the first derivative of the thermal unfolding profile. […]

fascin1 [4] = target: T1, fascin1; test: Differential Scanning Fluorimetry (Thermofluor) thermal shift assay; format: binding; conditions: for ΔTm at 1000 µM: vs free fascin1
Method: Differential Scanning Fluorimetry (Thermofluor) assays were performed using a Biorad C1000 Touch Thermal Cycler CFX96 RT-PCR system in a 96-well format.
Imipramine was prepared at 10 mM in 100% DMSO and added to each well to a final concentration of 1 mM and 10% DMSO. Three replicates with six internal controls, containing only free protein in 10% DMSO, were included in the 96-well plates. The PCR plates were covered and subsequently shaken, centrifuged, incubated for 2 min at 20° C. inside the RT-PCR machine and heated from 20 to 100° C. at a 1° C./min scan-rate. Fascin1 thermal denaturation profiles were obtained recording the fluorescence intensity for the FAM, HEX and T-Red predefined filters. The derivative of the fluorescence curve was used to determine the Tm. Changes in Tm associated to ligand binding were estimated taking the average Tm value derived from the free protein internal controls.
[formula] Ff and Fb are the fluorescence signal (area or CM) of free and bound fascin1 and PT and LT are the total protein and ligand concentration, respectively, at each addition point. Tm values were measured as the minimum of the first derivative of the thermal unfolding profile.

[5] = test system: DLD1 colorectal cancer cell line; test: Cell migration (wound healing) assay, DLD1; format: cell-based, human; conditions: for Migration (%): DLD1, slope 4-7 h relative to control, imipramine 20 μM, migrastatin 100 μM
Method: as §1, §2

HCT116 cells = test: Transwell invasion assay on Matrigel; format: cell-based, human; conditions: 30 hours; migrastatin 100 μM, imipramine 20 μM
Method: Tumor cell invasion not only involved the acquisition of migration properties but also the ability to degrade the extracellular matrix (ECM). For that reason, we performed a Transwell assay on Matrigel which resembles the ECM composition. The invasive capacities of HCT116 cells were determined using Cytoselect TM 24 Well Cell Invasion Assay (Basement Membrane Colorimetric Format) with coated Transwell chambers (8 μm pore size). Briefly, cells were resuspended with serum-free medium and treated with corresponding inhibitors (migrastatin 100 μM and, imipramine 20 μM). Cells (9.5×10^4) were seeded into the upper chamber, and in the lower chamber 500 μL of DMEM containing 10% FBS were added. After 30 hours of incubation, cells that remained on the upper chamber were scraped away with a cotton swab, and cells that migrated to the bottom of the filter were stained with the cell stain solution. The number of invaded cells was photographed under an inverted phase contrast microscope and quantified D.O.D by a spectrophotometer at λ=560 nm. Also we analyzed the invasive cells using the Image J software. […] A) Invasiveness of cells after treatment with different drugs. Pictures were taken under an inverted phase contrast microscope. The magnification was ×200 and scale bars=50 μm. B) Quantification of the invasive cells D.O. by a spectrophotometer at A=560 nm. […]

[6] = test system: SW-480 colorectal cancer cell line; test: Cell migration (wound healing) assay, SW-480; format: cell-based, human; conditions: for Migration (%): slope 4-7 h relative to control, imipramine 20 μM, migrastatin 100 μM
Method: as §1, §2

[7] = test system: colorectal cancer cell lines (DLD-1 and HCT-116) injected in zebra fish; test: Zebra fish larvae invasion model (xenograft); format: in vivo; conditions: DLD-1 and HCT-116 cells treated and injected in larvae
Method: Finally, in order to find out whether the anti-invasive properties of imipramine could be extrapolable to an animal system, the well-established zebra fish larvae invasion model was used. A xenograft assay was carried out by stained with fluorescent CM-Dil (Vibrant, Invitrogen) two colorectal cancer cell lines (DLD-1 and HCT-116) and injected in zebra fish. The result obtained is referred to the percentage of cell invasion.
Injection and migration of different colorectal cancer cell lines in zebra fish model (A). Two colorectal cancer cell lines (DLD-1 and HCT-166) were treated with migrastatin and imipramine and injected in zebra fish larvae.

COc1cccc(-c2cc(=O)c3ccccc3o2)c1N [PD98059]
filopodia lamellipodium formation (HCT116 cell line): absent

CN(C)CCCN1c2ccccc2CCc2ccccc21 [imipramine, 3-(10,11-dihydro-5H-dibenzo[b,f]azepin-5-yl)-N,N-dimethylpropan-1-amine]
area of invasion [1]: inhibits | depth of invasion [1]: inhibits | inhibition of migration ([2]; 20 μM, p<0.05): remarkable inhibition of migration | Migration (%) [2]: 43.25% | Kd (fascin1 [3]): 390 µM | Tm, FAM (fascin1 [4]; 1 mM compound, 2 μM fascin1, FAM filter): 58.3 ± 0.6 °C | ΔTm at 1000 µM (fascin1 [4]; 1 mM compound, 2 μM fascin1, FAM filter, read-out: ΔTm, FAM): 2.7 ± 1.1 °C | Tm, HEX (fascin1 [4]; 1 mM compound, 2 μM fascin1, HEX filter): 58.0 ± 0.0 °C | ΔTm at 1000 µM (fascin1 [4]; 1 mM compound, 2 μM fascin1, HEX filter, read-out: ΔTm, HEX): 2 °C | Tm, TRed (fascin1 [4]; 1 mM compound, 2 μM fascin1, T-Red filter): 58.0 ± 0.0 °C | ΔTm at 1000 µM (fascin1 [4]; 1 mM compound, 2 μM fascin1, T-Red filter, read-out: ΔTm, TRed): 1.8 ± 0.6 °C | increase in Tm (fascin1 [4]; text summary over filters): about 2 °C | Migration (%) [5]: 23.21% | inhibition of migration ([5]; DLD-1, 20 μM, p<0.05): remarkable inhibition of migration | filopodia lamellipodium formation (HCT116 cell line): absent | Lamellipodia protrusion number (HCT116 cell line): significantly lower | HCT-116 cell invasive ability (transwell) (HCT116 cells): inhibit tumor cell migration | inhibition of migration ([6]; 20 μM, p<0.05): remarkable inhibition of migration | Migration (%) [6]: 77.52% | cell invasion in zebra fish larvae [7]: diminishing cell invasion is evident

CO[C@H]1/C=C/CC/C=C/C(=O)O[C@H]([C@H](C)C(=O)CCCC2CC(=O)NC(=O)C2)/C(C)=C\[C@@H](C)[C@@H]1O [migrastatin]
Migration (%) [2]: 44.59% | Migration (%) [5]: 67.91% | filopodia lamellipodium formation (HCT116 cell line): absent | Lamellipodia protrusion number (HCT116 cell line): significantly lower | HCT-116 cell invasive ability (transwell) (HCT116 cells): inhibit tumor cell migration | Migration (%) [6]: 70.34%

EGF: Epidermal Growth Factor (migration stimulator)
filopodia lamellipodium formation (HCT116 cell line): prominent filopodia lamellipodium formation

— patent US12343349B2, “Imipramine for use as an inhibitor of Fascin1 overexpression” (FUNDACION UNIVERSITARIA SAN ANTONIO, priority 2018, dated 2025)
